The results in this text go back to patent publication US9963434B2, “N-arylmethyl sulfonamide negative modulators of NR2A” (LUC THERAPEUTICS, priority 2013, dated 2018).

Structures are written as SMILES. Read-outs that look alike come from different tables or passages of the source. Some results are limits rather than exact numbers.

This assay concerns the target NR1/NR2A (Homo sapiens (Human), UniProt Q05586+Q12879). Put plainly: FDSS Ca2+ influx inhibition assay in HEK293 cells expressing NR1/NR2A. The class given is cell-based. Particulars: 3 μM glutamate, 3 μM glycine, 1 mM Ca2+. The method in brief: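 Fluo-8-loaded HEK293 NR1/NR2A cells preincubated 10 min with compound at 10 μM final (0.1% DMSO) in Ca2+/Mg2+-free HBSS with 20 mM HEPES. Stimulated with 3 μM glutamate, 3 μM glycine, 1 mM Ca2+; FDSS recording for 3 min, end/baseline fluorescence ratio compared with MK801.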

The mark [1] stands for this setting: inhibition relative to MK801, read-out: NR2A IC50.

Chain of NR1/NR2A (Q12879 23-1464, other chains not shown): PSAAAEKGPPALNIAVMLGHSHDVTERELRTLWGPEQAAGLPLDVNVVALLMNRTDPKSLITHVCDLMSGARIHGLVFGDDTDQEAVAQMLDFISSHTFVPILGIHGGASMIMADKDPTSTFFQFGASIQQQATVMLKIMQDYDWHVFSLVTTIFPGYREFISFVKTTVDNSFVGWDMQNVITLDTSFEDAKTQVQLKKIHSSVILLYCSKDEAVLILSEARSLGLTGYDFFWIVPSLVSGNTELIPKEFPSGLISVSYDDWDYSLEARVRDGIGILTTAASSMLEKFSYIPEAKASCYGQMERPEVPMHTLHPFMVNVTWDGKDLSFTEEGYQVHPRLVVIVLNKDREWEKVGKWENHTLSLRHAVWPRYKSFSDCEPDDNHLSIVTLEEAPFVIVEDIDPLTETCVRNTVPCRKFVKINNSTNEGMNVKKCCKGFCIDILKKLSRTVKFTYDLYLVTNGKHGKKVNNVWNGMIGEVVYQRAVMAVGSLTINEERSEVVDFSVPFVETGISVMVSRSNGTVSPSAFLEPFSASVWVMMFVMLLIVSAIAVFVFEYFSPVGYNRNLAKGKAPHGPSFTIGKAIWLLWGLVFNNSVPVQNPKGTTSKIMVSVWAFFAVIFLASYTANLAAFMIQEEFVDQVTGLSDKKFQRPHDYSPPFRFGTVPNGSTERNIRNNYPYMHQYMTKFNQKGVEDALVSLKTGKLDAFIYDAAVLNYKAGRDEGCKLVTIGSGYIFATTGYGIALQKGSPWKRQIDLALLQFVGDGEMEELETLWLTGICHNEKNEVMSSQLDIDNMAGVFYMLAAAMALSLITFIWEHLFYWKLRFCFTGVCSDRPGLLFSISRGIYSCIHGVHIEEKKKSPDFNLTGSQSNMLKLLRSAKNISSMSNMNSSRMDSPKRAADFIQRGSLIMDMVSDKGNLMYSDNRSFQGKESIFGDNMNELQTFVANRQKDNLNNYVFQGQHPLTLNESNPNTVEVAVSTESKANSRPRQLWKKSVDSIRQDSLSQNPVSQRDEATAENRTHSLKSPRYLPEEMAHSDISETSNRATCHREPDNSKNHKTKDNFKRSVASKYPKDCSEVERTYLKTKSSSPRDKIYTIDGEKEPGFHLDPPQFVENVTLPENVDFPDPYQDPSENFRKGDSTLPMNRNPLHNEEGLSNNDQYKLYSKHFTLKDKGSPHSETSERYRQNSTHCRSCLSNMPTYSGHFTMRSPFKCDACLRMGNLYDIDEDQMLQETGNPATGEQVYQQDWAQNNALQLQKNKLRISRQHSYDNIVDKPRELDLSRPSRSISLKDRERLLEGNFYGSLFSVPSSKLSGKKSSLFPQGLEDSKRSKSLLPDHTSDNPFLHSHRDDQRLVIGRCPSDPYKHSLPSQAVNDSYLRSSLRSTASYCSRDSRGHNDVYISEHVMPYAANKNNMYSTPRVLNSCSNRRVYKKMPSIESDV

As to `Cc1ncc(CNC(=O)c2cnc(CNC(=O)c3cccc(Cl)c3C)c(C)n2)s1` [5-{[(3-chloro-2-methylphenyl)formamido]methyl}-6-methyl-N-[(2-methyl-1,3-thiazol-5-yl)methyl]pyrazine-2-carboxamide], the IC50 is 10 µM under setting [1] and more than 10 µM (read-out: Binned Activity). For `Cc1ncc(CNC(=O)c2ccc(CNC(=O)c3cccc(Cl)c3C)cn2)s1` [5-{[(3-chloro-2-methylphenyl)formamido]methyl}-N-[(2-methyl-1,3-thiazol-5-yl)methyl]pyridine-2-carboxamide], in that order: 10 µM and more than 10 µM. For `Cc1ncc(CNC(=O)c2cnc(CNC(=O)c3cccc(Cl)c3)cn2)s1` [5-{[(3-chlorophenyl)formamido]methyl}-N-[(2-methyl-1,3-thiazol-5-yl)methyl]pyrazine-2-carboxamide], in that order: 10 µM and more than 10 µM. As to `Cc1ncc(CNC(=O)c2cnc(CNC(=O)c3cccc(C#N)c3)c(C)n2)s1` [5-{[(3-cyanophenyl)formamido]methyl}-6-methyl-N-[(2-methyl-1,3-thiazol-5-yl)methyl]pyrazine-2-carboxamide], the IC50 by setting is: under setting [1], 10 µM; (read-out: Binned Activity) more than 10 µM.

`Cc1ncc(CNC(=O)c2cnc(CNC(=O)c3cccc(C#N)c3)cn2)s1` [5-{[(3-cyanophenyl)formamido]methyl}-N-[(2-methyl-1,3-thiazol-5-yl)methyl]pyrazine-2-carboxamide]: the IC50 reads like this: under setting [1], 10 µM; (read-out: Binned Activity) more than 10 µM. `Cc1ncc(CNC(=O)c2ccc(CNC(=O)c3cccc(C#N)c3)cn2)s1` [5-{[(3-cyanophenyl)formamido]methyl}-N-[(2-methyl-1,3-thiazol-5-yl)methyl]pyridine-2-carboxamide]: the IC50 runs as follows: under setting [1], 10 µM; (read-out: Binned Activity) more than 10 µM. As for `Cc1ncc(CNC(=O)c2cnc(CNC(=O)c3cccc(F)c3)cn2)s1` [5-{[(3-fluorophenyl)formamido]methyl}-N-[(2-methyl-1,3-thiazol-5-yl)methyl]pyrazine-2-carboxamide], the IC50 runs as follows: under setting [1], 10 µM; (read-out: Binned Activity) more than 10 µM. For `Cc1ncc(CNC(=O)c2ccc(CNC(=O)c3cccc(F)c3)cn2)s1` [5-{[(3-fluorophenyl)formamido]methyl}-N-[(2-methyl-1,3-thiazol-5-yl)methyl]pyridine-2-carboxamide] the same measures were 10 µM and more than 10 µM. For `Cc1ncc(CNC(=O)c2cnc(CNC(=O)c3cc(Cl)ccc3F)c(C)n2)s1` [5-{[(5-chloro-2-fluorophenyl)formamido]methyl}-6-methyl-N-[(2-methyl-1,3-thiazol-5-yl)methyl]pyrazine-2-carboxamide], the IC50 under setting [1] worked out at 10 µM and the IC50 (read-out: Binned Activity) is more than 10 µM. Consider `Cc1ncc(CNC(=O)c2cnc(CNC(=O)c3cc(Cl)ccc3F)cn2)s1` [5-{[(5-chloro-2-fluorophenyl)formamido]methyl}-N-[(2-methyl-1,3-thiazol-5-yl)methyl]pyrazine-2-carboxamide], for which the IC50 under setting [1] was determined as 10 µM and the IC50 (read-out: Binned Activity) was more than 10 µM. For `Cc1ncc(CNC(=O)c2ccc(CNC(=O)c3cc(Cl)ccc3F)cn2)s1` [5-{[(5-chloro-2-fluorophenyl)formamido]methyl}-N-[(2-methyl-1,3-thiazol-5-yl)methyl]pyridine-2-carboxamide], in that order: 10 µM and more than 10 µM. For `O=C(NC1CCS(=O)(=O)C1)c1ccc(CNS(=O)(=O)c2ccc(F)c(Cl)c2)nc1` (stereo not shown) [6-(3-chloro-4-fluorobenzenesulfon-amidomethyl)-N-(1,1-dioxo-1λ^6-thiolan-3-yl)pyridine-3-carboxamide] the same measures were 10 µM and more than 10 µM.

`O=C(NCc1ccno1)c1ccc(CNS(=O)(=O)c2ccc(F)c(Cl)c2)nc1` [6-(3-chloro-4-fluorobenzenesulfon-amidomethyl)-N-(1,2-oxazol-5-ylmethyl)pyridine-3-carboxamide]: the IC50 by setting is: under setting [1], 10 µM; (read-out: Binned Activity) more than 10 µM. For `O=C(NCc1cocn1)c1ccc(CNS(=O)(=O)c2ccc(F)c(Cl)c2)nn1` [6-(3-chloro-4-fluorobenzenesulfon-amidomethyl)-N-(1,3-oxazol-4-ylmethyl)pyridazine-3-carboxamide], in that order: 10 µM and more than 10 µM. For `O=C(NCc1cocn1)c1ccc(CNS(=O)(=O)c2ccc(F)c(Cl)c2)nc1` [6-(3-chloro-4-fluorobenzenesulfon-amidomethyl)-N-(1,3-oxazol-4-ylmethyl)pyridine-3-carboxamide], in that order: 10 µM and more than 10 µM. For `O=C(NCc1nccs1)c1ccc(CNS(=O)(=O)c2ccc(F)c(Cl)c2)nc1` [6-(3-chloro-4-fluorobenzenesulfon-amidomethyl)-N-(1,3-thiazol-2-ylmethyl)pyridine-3-carboxamide] the same measures were 10 µM and more than 10 µM. In the case of `O=C(NCc1cncs1)c1ccc(CNS(=O)(=O)c2ccc(F)c(Cl)c2)nn1` [6-(3-chloro-4-fluorobenzenesulfon-amidomethyl)-N-(1,3-thiazol-5-ylmethyl)pyridazine-3-carboxamide], the IC50 is, setting by setting: under setting [1], 10 µM; (read-out: Binned Activity) more than 10 µM.

In the case of `O=C(NCc1cncs1)c1ccc(CNS(=O)(=O)c2ccc(F)c(Cl)c2)nc1` [6-(3-chloro-4-fluorobenzenesulfon-amidomethyl)-N-(1,3-thiazol-5-ylmethyl)pyridine-3-carboxamide], the IC50 is, setting by setting: under setting [1], 10 µM; (read-out: Binned Activity) more than 10 µM. Regarding `O=C(NCc1ccco1)c1ccc(CNS(=O)(=O)c2ccc(F)c(Cl)c2)nn1` [6-(3-chloro-4-fluorobenzenesulfon-amidomethyl)-N-(furan-2-ylmethyl)pyridazine-3-carboxamide], the IC50 under setting [1] was 10 µM and the IC50 (read-out: Binned Activity) was more than 10 µM.

For the compound `O=C(NCc1ccoc1)c1ccc(CNS(=O)(=O)c2ccc(F)c(Cl)c2)nn1` [6-(3-chloro-4-fluorobenzenesulfon-amidomethyl)-N-(furan-3-ylmethyl)pyridazine-3-carboxamide], the IC50 is 10 µM under setting [1] and more than 10 µM (read-out: Binned Activity). For `O=C(NCc1cnccn1)c1ccc(CNS(=O)(=O)c2ccc(F)c(Cl)c2)nn1` [6-(3-chloro-4-fluorobenzenesulfon-amidomethyl)-N-(pyrazin-2-ylmethyl)pyridazine-3-carboxamide] the same measures were 10 µM and more than 10 µM. With `O=C(NCc1cnccn1)c1ccc(CNS(=O)(=O)c2ccc(F)c(Cl)c2)nc1` [6-(3-chloro-4-fluorobenzenesulfon-amidomethyl)-N-(pyrazin-2-ylmethyl)pyridine-3-carboxamide], under “read-out: Binned Activity”, the IC50 was 0.1 to 1 µM. Regarding `O=C(NCc1ccccn1)c1ccc(CNS(=O)(=O)c2ccc(F)c(Cl)c2)nn1` [6-(3-chloro-4-fluorobenzenesulfon-amidomethyl)-N-(pyridin-2-ylmethyl)pyridazine-3-carboxamide], the IC50 reads like this: under setting [1], 10 µM; (read-out: Binned Activity) more than 10 µM.

Take `O=C(NCc1ccccn1)c1ccc(CNS(=O)(=O)c2ccc(F)c(Cl)c2)nc1` [6-(3-chloro-4-fluorobenzenesulfon-amidomethyl)-N-(pyridin-2-ylmethyl)pyridine-3-carboxamide]: the IC50 is, setting by setting: under setting [1], 10 µM; (read-out: Binned Activity) more than 10 µM. For `O=C(NCc1cccnc1)c1ccc(CNS(=O)(=O)c2ccc(F)c(Cl)c2)nn1` [6-(3-chloro-4-fluorobenzenesulfon-amidomethyl)-N-(pyridin-3-ylmethyl)pyridazine-3-carboxamide], in that order: 10 µM and more than 10 µM.

For the compound `O=C(NCc1cccnc1)c1ccc(CNS(=O)(=O)c2ccc(F)c(Cl)c2)nc1` [6-(3-chloro-4-fluorobenzenesulfon-amidomethyl)-N-(pyridin-3-ylmethyl)pyridine-3-carboxamide], the IC50 (read-out: Binned Activity) was more than 10 µM.

Consider `O=C(NCc1ccncc1)c1ccc(CNS(=O)(=O)c2ccc(F)c(Cl)c2)nn1` [6-(3-chloro-4-fluorobenzenesulfon-amidomethyl)-N-(pyridin-4-ylmethyl)pyridazine-3-carboxamide], for which the IC50 by setting is: under setting [1], 10 µM; (read-out: Binned Activity) more than 10 µM. For `O=C(NCc1ccncc1)c1ccc(CNS(=O)(=O)c2ccc(F)c(Cl)c2)nc1` [6-(3-chloro-4-fluorobenzenesulfon-amidomethyl)-N-(pyridin-4-ylmethyl)pyridine-3-carboxamide], in that order: 10 µM and more than 10 µM. With `O=C(NCc1ncccn1)c1ccc(CNS(=O)(=O)c2ccc(F)c(Cl)c2)nn1` [6-(3-chloro-4-fluorobenzenesulfon-amidomethyl)-N-(pyrimidin-2-ylmethyl)pyridazine-3-carboxamide], the IC50 is, setting by setting: under setting [1], 10 µM; (read-out: Binned Activity) more than 10 µM.

On to `O=C(NCc1ncccn1)c1ccc(CNS(=O)(=O)c2ccc(F)c(Cl)c2)nc1` [6-(3-chloro-4-fluorobenzenesulfon-amidomethyl)-N-(pyrimidin-2-ylmethyl)pyridine-3-carboxamide], for which the IC50 by setting is: under setting [1], 10 µM; (read-out: Binned Activity) more than 10 µM.

Take `O=C(NCc1ccncn1)c1ccc(CNS(=O)(=O)c2ccc(F)c(Cl)c2)nn1` [6-(3-chloro-4-fluorobenzenesulfon-amidomethyl)-N-(pyrimidin-4-ylmethyl)pyridazine-3-carboxamide]: the IC50 reads like this: under setting [1], 10 µM; (read-out: Binned Activity) more than 10 µM.

For `O=C(NCc1ccncn1)c1ccc(CNS(=O)(=O)c2ccc(F)c(Cl)c2)nc1` [6-(3-chloro-4-fluorobenzenesulfon-amidomethyl)-N-(pyrimidin-4-ylmethyl)pyridine-3-carboxamide], the IC50 by setting is: under setting [1], 10 µM; (read-out: Binned Activity) more than 10 µM. For `O=C(NCc1cncnc1)c1ccc(CNS(=O)(=O)c2ccc(F)c(Cl)c2)nn1` [6-(3-chloro-4-fluorobenzenesulfon-amidomethyl)-N-(pyrimidin-5-ylmethyl)pyridazine-3-carboxamide], in that order: 10 µM and more than 10 µM.
